The text below walks through data of US9096548B2, “Pyrazine amide compounds” (Boehringer Ingelheim International GmbH, priority 2013, dated 2015).

Where a name gives a salt, the structure may show the parent alone.

The target of the first assay is T1, ENaC (Epithelial Sodium Channel) (Mus musculus, UniProt Q61180+Q9WU38+Q9WU39).
T1 construct: Mouse kidney M−1 cells were cultivated in DMEM; endogenous in cells; host or cells: Mouse kidney M-1 cells, cultivated with dexamethasone on transwell filters
T1 sequence (Q61180 1-699): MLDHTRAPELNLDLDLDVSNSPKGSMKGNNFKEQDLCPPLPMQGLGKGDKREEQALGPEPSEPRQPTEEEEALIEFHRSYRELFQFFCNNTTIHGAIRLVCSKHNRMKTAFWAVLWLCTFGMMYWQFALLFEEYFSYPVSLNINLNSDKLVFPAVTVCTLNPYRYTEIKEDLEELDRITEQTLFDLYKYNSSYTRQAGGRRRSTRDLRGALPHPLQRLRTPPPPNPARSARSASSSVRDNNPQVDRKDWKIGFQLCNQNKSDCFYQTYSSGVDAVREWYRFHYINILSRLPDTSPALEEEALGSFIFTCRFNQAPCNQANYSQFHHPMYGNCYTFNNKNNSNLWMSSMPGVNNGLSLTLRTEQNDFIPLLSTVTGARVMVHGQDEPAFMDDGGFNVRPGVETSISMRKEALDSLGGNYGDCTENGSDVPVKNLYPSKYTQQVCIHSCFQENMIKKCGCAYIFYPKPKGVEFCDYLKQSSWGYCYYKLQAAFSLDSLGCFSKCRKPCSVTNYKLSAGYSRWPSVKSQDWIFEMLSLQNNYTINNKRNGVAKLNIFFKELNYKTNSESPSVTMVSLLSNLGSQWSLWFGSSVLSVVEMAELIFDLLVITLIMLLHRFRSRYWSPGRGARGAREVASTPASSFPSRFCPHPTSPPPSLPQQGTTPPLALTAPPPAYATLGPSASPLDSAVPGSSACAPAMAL
T1 sequence (Q9WU38 1-638): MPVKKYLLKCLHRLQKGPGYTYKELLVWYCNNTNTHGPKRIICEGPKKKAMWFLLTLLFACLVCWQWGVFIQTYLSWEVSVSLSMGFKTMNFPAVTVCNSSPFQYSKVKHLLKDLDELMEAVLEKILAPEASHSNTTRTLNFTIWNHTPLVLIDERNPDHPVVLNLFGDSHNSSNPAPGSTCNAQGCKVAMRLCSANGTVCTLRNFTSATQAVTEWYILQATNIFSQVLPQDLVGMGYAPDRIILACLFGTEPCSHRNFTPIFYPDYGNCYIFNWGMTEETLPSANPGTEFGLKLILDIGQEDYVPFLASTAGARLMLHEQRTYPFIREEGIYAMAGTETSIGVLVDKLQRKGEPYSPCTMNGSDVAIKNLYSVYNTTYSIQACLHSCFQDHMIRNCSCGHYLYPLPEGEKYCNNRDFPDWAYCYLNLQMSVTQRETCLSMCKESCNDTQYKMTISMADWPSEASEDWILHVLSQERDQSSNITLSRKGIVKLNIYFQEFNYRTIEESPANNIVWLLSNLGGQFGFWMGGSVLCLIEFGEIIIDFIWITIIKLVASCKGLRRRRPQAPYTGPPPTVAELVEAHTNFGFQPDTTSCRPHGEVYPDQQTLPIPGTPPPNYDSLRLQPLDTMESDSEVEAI
T1 sequence (Q9WU39 1-655): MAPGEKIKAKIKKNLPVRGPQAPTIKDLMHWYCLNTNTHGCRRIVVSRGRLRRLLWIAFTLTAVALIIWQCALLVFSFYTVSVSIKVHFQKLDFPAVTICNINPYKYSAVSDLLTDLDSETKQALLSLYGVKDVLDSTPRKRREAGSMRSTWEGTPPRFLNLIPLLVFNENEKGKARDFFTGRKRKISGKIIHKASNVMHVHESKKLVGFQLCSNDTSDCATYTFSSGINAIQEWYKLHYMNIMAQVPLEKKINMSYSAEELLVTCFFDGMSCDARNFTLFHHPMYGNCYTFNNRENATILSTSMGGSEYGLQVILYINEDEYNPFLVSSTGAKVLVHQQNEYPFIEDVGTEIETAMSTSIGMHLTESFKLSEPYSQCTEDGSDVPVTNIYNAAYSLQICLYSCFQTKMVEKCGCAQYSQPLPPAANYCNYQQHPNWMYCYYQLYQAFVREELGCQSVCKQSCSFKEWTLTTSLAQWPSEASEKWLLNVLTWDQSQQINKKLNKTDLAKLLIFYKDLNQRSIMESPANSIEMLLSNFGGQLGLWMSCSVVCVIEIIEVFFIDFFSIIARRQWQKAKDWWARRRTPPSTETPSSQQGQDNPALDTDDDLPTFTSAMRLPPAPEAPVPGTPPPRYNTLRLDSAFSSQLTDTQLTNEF
Briefly: Ussing Chamber assay (short circuit current, amiloride sensitive I_SC). It is filed as cell-based. Conditions: Ussing chamber, mouse kidney M-1 cells, short circuit current, compound added to the apical solution; read-out: IC50. As for the experimental part: The IC50 values of the example compounds given above were determined in the Ussing Chamber assay.
Ussing Chamber: Mouse kidney M−1 cells were cultivated in DMEM containing 5% FCS and 5 μM dexamethasone for 10 to 12 days on polyester transwell filters. Filters were inserted into a teflon-coated well-plate which fit into the ussing chamber system. Prior to measurement the medium of M−1 cells was replaced with Caco-2 transport buffer (Invitrogen, Germany). During measurements, the Ussing chamber temperature was kept at 37° C. Short circuit currents (I_sc) were measured in the voltage-clamp mode with the software package Lab View for data acquisition and analysis. The transepithelial electrical resistance (TEER) was determined by the application of voltage steps of ±5 mV every 5 sec. Compounds were administered at a final concentration of 3 μM or at increasing concentrations (1-3-10 μM) to the apical solution. At the end of each experiment the amiloride sensitive I_SC was measured by adding 3 μM amiloride to the apical compartment. Results are expressed as inhibition in percent of the amiloride effect or as IC50.
Consider `COc1ccc(CCC[N+]2(CCCc3ccc(C(=O)N(CCCN(C)C)CCCN(C)C)cc3)CCCC(NC(=O)c3nc(Cl)c(N)nc3N)C2)cc1` (centres unmarked) [Example 5.3], for which the IC50 was determined as 0.055 µM.

On to `COc1ccc(CCC[N+]2(CCCc3ccc(C(=O)NCCCS(=O)(=O)O)cc3)CCCC(NC(=O)c3nc(Cl)c(N)nc3N)C2)cc1` (centres unmarked) [Example 5.4], for which the IC50 was found to be 0.26 µM. `COc1ccc(CCC[N+]2(CCCc3ccc(C(=O)NCCOCCOCCO)cc3)CCCC(NC(=O)c3nc(Cl)c(N)nc3N)C2)cc1` (centres unmarked) [Example 5.5]: the IC50 is 0.07 µM. On the same count and under the same terms, with `COc1ccc(CCC[N+]2(CCCc3ccc(C(N)=O)cc3)CCCC(NC(=O)c3nc(Cl)c(N)nc3N)C2)cc1` (centres unmarked) [Example 5.6] the figure was 0.025 µM; with `COc1ccc(CCC[N+]2(CCCc3ccc(C(=O)NCCCN(C)C)cc3)CCCC(NC(=O)c3nc(Cl)c(N)nc3N)C2)cc1` (centres unmarked) [Example 5.7], 0.02 µM.

For `COC(=O)CCNC(=O)c1ccc(CCC[N+]2(CCCc3ccc(OC)cc3)CCCC(NC(=O)c3nc(Cl)c(N)nc3N)C2)cc1` (centres unmarked) [Example 5.8], the IC50 turned out to be 0.024 µM.

For the molecule `NC(=O)COc1ccc(CCC[N+]2(CCCc3ccc(OCC(N)=O)cc3)CCCC(NC(=O)c3nc(Cl)c(N)nc3N)C2)cc1` (centres unmarked) [Example 6.4], the 50% inhibitory concentration (IC50) was 0.072 µM. The same measure, in the same setting: with `CN(C)CCNC(=O)COc1ccc(CCC[N+]2(CCCc3ccc(OCC(=O)NCCN(C)C)cc3)CCCC(NC(=O)c3nc(Cl)c(N)nc3N)C2)cc1` (centres unmarked) [Example 6.5] the figure was 0.05 µM; with `C[N+](C)(C)CCNC(=O)COc1ccc(CCC[N+]2(CCCc3ccc(OCC(=O)NCC[N+](C)(C)C)cc3)CCCC(NC(=O)c3nc(Cl)c(N)nc3N)C2)cc1` (centres unmarked) [Example 6.6], 0.068 µM. On the same count and under the same terms, with `CN(C)CCCNC(=O)COc1ccc(CCC[N+]2(CCCc3ccc(OCC(=O)NCCCN(C)C)cc3)CCCC(NC(=O)c3nc(Cl)c(N)nc3N)C2)cc1` (centres unmarked) [Example 6.7] the figure was 0.031 µM; with `CN(C)CCCN(C)C(=O)COc1ccc(CCC[N+]2(CCCc3ccc(OCC(=O)N(C)CCCN(C)C)cc3)CCCC(NC(=O)c3nc(Cl)c(N)nc3N)C2)cc1` (centres unmarked) [Example 6.8], 0.041 µM. On the same count and under the same terms, with `CN(C)CCN(C)C(=O)COc1ccc(CCC[N+]2(CCCc3ccc(OCC(=O)N(C)CCN(C)C)cc3)CCCC(NC(=O)c3nc(Cl)c(N)nc3N)C2)cc1` (centres unmarked) [Example 6.9] the figure was 0.065 µM. Take `C[N+](C)(C)CCNC(=O)COc1ccc(CCC[N+]2(CCCc3ccc(OCC(=O)NCC[N+](C)(C)C)cc3)CCC[C@H](NC(=O)c3nc(Cl)c(N)nc3N)C2)cc1` [Example 6.10]: the half-maximal inhibitory concentration (IC50) amounted to 0.068 µM. Turning to `COC(=O)COc1ccc(CCC[N+]2(CCCc3ccc(OCC(=O)OC)cc3)CCC[C@H](NC(=O)c3nc(Cl)c(N)nc3N)C2)cc1` [Example 6.11], the 50% inhibitory concentration (IC50) stood at 0.045 µM. `CN(C)C(=O)COc1ccc(CCC[N+]2(CCCc3ccc(OCC(=O)N(C)C)cc3)CCC[C@H](NC(=O)c3nc(Cl)c(N)nc3N)C2)cc1` [Example 6.12]: the IC50 worked out at 0.134 µM.

The assay is the same for the next values; noted with them: Ussing chamber, mouse kidney M-1 cells, short circuit current; unit inferred; read-out: IC50.
With `COc1ccc(CCC[N+]2(CCCc3ccc(C(=O)NCCC(=O)O)cc3)CCCC(NC(=O)c3nc(Cl)c(N)nc3N)C2)cc1` (centres unmarked) [Example 5.10, 1-{3-[4-(Carboxyethyl-carbamoyl)-phenyl]-propyl}-3-[(3,5-diamino-6-chloro-pyrazine-2-carbonyl)-amino]-1-[3-(4-methoxy-phenyl)-propyl]-piperidinium chloride], the IC50 was 0.15 µM.

For `Nc1nc(N)c(C(=O)NC2CCC[N+](CCCc3ccc(OCC(=O)NCCOCCOCCO)cc3)(CCCc3ccc(OCC(=O)NCCOCCOCCO)cc3)C2)nc1Cl` (centres unmarked) [Example 6.3, 3-[(3,5-Diamino-6-chloro-pyrazine-2-carbonyl)-amino]-1,1-bis-{3-[4-({2-[2-(2-hydroxyethoxy)-ethoxy]-ethylcarbamoyl}-methoxy)-phenyl]-propyl}-piperidinium trifluoroacetate], the IC50 was found to be 0.103 µM.

Still in this assay, the particulars now being: Ussing chamber, mouse kidney M-1 cells, short circuit current; value printed in the example text with μM; read-out: IC50.
On to `Nc1nc(N)c(C(=O)NC2CCC[N+](CCCc3ccc(C(=O)NCCOCCOCCO)cc3)(CCCc3ccc(C(=O)NCCOCCOCCO)cc3)C2)nc1Cl` (centres unmarked) [Example 4.2, 3-[(3,5-Diamino-6-chloro-pyrazine-2-carbonyl)-amino]-1,1-bis-[3-(4-{2-[2-(2-hydroxyethoxy)-ethoxy)]-ethylcarbamoyl}-phenyl)-propyl]-piperidinium chloride], for which the half-maximal inhibitory concentration (IC50) came out at 0.76 µM. Turning to `COC(=O)c1ccc(CCC[N+]2(CCCc3ccc(OC)cc3)CCCC(NC(=O)c3nc(Cl)c(N)nc3N)C2)cc1` (centres unmarked) [Example 5, 3-[(3,5-Diamino-6-chloro-pyrazine-2-carbonyl)-amino]-1-[3-(4-methoxycarbonyl-phenyl)propyl]-1-[3-(4-methoxy-phenyl)-propyl]-piperidinium chloride], the IC50 is 0.038 µM. Same read-out and setting: with `COc1ccc(CCC[N+]2(CCCc3ccc(C(=O)[O-])cc3)CCCC(NC(=O)c3nc(Cl)c(N)nc3N)C2)cc1` (centres unmarked) [Example 5.1, 1-[3-(4-Carboxy-phenyl)-propyl]-3-[(3,5-diamino-6-chloro-pyrazine-2-carbonyl)-amino]-1-[3-(4-methoxy-phenyl)-propyl]-piperidinium] the figure was 0.11 µM.

Regarding `COC(=O)CNC(=O)c1ccc(CCC[N+]2(CCCc3ccc(OC)cc3)CCCC(NC(=O)c3nc(Cl)c(N)nc3N)C2)cc1` (centres unmarked) [Example 5.2, 3-[(3,5-Diamino-6-chloro-pyrazine-2-carbonyl)-amino]-1-{3-[4-(methoxycarbonylmethylcarbamoyl)-phenyl]-propyl}-1-[3-(4-methoxy-phenyl)-propyl]-piperidinium chloride], the IC50 turned out to be 0.042 µM.

For `COC(=O)COc1ccc(CCC[N+]2(CCCc3ccc(OCC(=O)OC)cc3)CCCC(NC(=O)c3nc(Cl)c(N)nc3N)C2)cc1` (centres unmarked) [Example 6, 3-[(3,5-Diamino-6-chloro-pyrazine-2-carbonyl)-amino]-1,1-bis-[3-(4-methoxycarbonylmethoxy-phenyl)-propyl]-piperidinium trifluoroacetate], the IC50 came to 0.02 µM. For the molecule `Nc1nc(N)c(C(=O)NC2CCC[N+](CCCc3ccc(OCC(=O)O)cc3)(CCCc3ccc(OCC(=O)O)cc3)C2)nc1Cl` (centres unmarked) [Example 6.1, 1,1-Bis-[3-(4-carboxymethoxy-phenyl)-propyl]-3-[(3,5-diamino-6-chloro-pyrazine-2-carbonyl)-amino]-piperidinium chloride], the 50% inhibitory concentration (IC50) was more than 1 µM.

A word on the IC50: it is the concentration that inhibits the measured activity by half.
